In ChEMBL document CHEMBL1681749, “Antibacterial activities of imidazolium, pyrrolidinium and piperidinium salts” (2011):

Assays:
Type in all cases: functional
Bacillus subtilis = assay: Antibacterial activity against Bacillus subtilis 168 by agar-dilution method; conditions: subsp. subtilis str. 168
Escherichia coli = assay: Antibacterial activity against Escherichia coli MG1655 by agar-dilution method; conditions: K-12 substr. MG1655
Staphylococcus aureus = assay: Antibacterial activity against Staphylococcus aureus subsp. aureus NBRC 15035 by agar-dilution method
Pseudomonas putida = assay: Antibacterial activity against Pseudomonas putida NBRC 14164 by agar-dilution method

## CCCCCCCCCCCCCCCC[n+]1ccn(Cc2ccccc2)c1C.[I-]
Bacillus subtilis
  MIC: 1.56 µg/mL
Escherichia coli
  MIC: 3.13 µg/mL

## C[Si](C)(C)CCCCn1cc[n+](Cc2ccc(CC[Si](C)(C)C)cc2)c1.[I-]
Staphylococcus aureus
  MIC: 0.39 µg/mL
Bacillus subtilis
  MIC: 0.39 µg/mL
Escherichia coli
  MIC: > 100 µg/mL
Pseudomonas putida
  MIC: 100 µg/mL

## C[Si](C)(C)CCCCCCCn1cc[n+](Cc2ccc(CC[Si](C)(C)C)cc2)c1.[I-]
Staphylococcus aureus
  MIC: 1.56 µg/mL
Bacillus subtilis
  MIC: 1.56 µg/mL
Escherichia coli
  MIC: > 100 µg/mL
Pseudomonas putida
  MIC: > 100 µg/mL

## CCCCCC#CC[N+]1(C)CCCC1.[I-]
Staphylococcus aureus
  MIC: > 50 µg/mL
Bacillus subtilis
  MIC: > 50 µg/mL
Escherichia coli
  MIC: > 50 µg/mL
Pseudomonas putida
  MIC: > 50 µg/mL

## CCCCCC#CC[N+]1(CCCCC[Si](C)(C)C)CCCC1.[I-]
Staphylococcus aureus
  MIC: 1.56 µg/mL
Bacillus subtilis
  MIC: 1.56 µg/mL
Escherichia coli
  MIC: > 50 µg/mL
Pseudomonas putida
  MIC: > 50 µg/mL

## CCCCCC#CC[n+]1ccn(CCCCCCCCCCCCCCCC)c1C.[I-]
Staphylococcus aureus
  MIC: 1.56 µg/mL
Bacillus subtilis
  MIC: 1.56 µg/mL
Escherichia coli
  MIC: > 100 µg/mL
Pseudomonas putida
  MIC: > 100 µg/mL

## C[Si](C)(C)CCCCn1cc[n+](-c2ccc(-c3ccccc3)cc2)c1.[I-]
Staphylococcus aureus
  MIC: 0.39 µg/mL
Bacillus subtilis
  MIC: 1.56 µg/mL
Escherichia coli
  MIC: 100 µg/mL
Pseudomonas putida
  MIC: 100 µg/mL

## C[Si](C)(C)CCCCCn1cc[n+](Cc2ccc(CC[Si](C)(C)C)cc2)c1.[I-]
Staphylococcus aureus
  MIC: 0.78 µg/mL
Bacillus subtilis
  MIC: 0.78 µg/mL
Escherichia coli
  MIC: > 100 µg/mL
Pseudomonas putida
  MIC: > 100 µg/mL

## CCCCCC#CC[n+]1ccn(CCCCC[Si](C)(C)C)c1C.[I-]
Staphylococcus aureus
  MIC: 0.39 µg/mL
Bacillus subtilis
  MIC: 0.39 µg/mL
Escherichia coli
  MIC: 12.5 µg/mL
Pseudomonas putida
  MIC: 50 µg/mL

## CCCCCC#CC[n+]1ccn(CCCCCC[Si](C)(C)C)c1C.[I-]
Staphylococcus aureus
  MIC: 0.39 µg/mL
Bacillus subtilis
  MIC: 0.39 µg/mL
Escherichia coli
  MIC: 12.5 µg/mL
Pseudomonas putida
  MIC: 50 µg/mL

## CCCCCC#CC[n+]1ccn(CCCCCCC[Si](C)(C)C)c1C.[I-]
Staphylococcus aureus
  MIC: 0.39 µg/mL
Bacillus subtilis
  MIC: 0.39 µg/mL
Escherichia coli
  MIC: 12.5 µg/mL
Pseudomonas putida
  MIC: 100 µg/mL

## CCCCCC#CC[n+]1ccn(CCCCCCCCC[Si](C)(C)C)c1.[I-]
Staphylococcus aureus
  MIC: 0.78 µg/mL
Bacillus subtilis
  MIC: 0.39 µg/mL
Escherichia coli
  MIC: 100 µg/mL
Pseudomonas putida
  MIC: > 100 µg/mL

## CCCCCC#CC[n+]1ccn(CCCCCCCCCC)c1C.[I-]
Staphylococcus aureus
  MIC: 0.39 µg/mL
Bacillus subtilis
  MIC: 0.78 µg/mL
Escherichia coli
  MIC: 3.13 µg/mL
Pseudomonas putida
  MIC: 50 µg/mL

## C[Si](C)(C)CCCCCCn1cc[n+](Cc2ccc(CC[Si](C)(C)C)cc2)c1.[I-]
Staphylococcus aureus
  MIC: 1.56 µg/mL
Bacillus subtilis
  MIC: 1.56 µg/mL
Escherichia coli
  MIC: > 100 µg/mL
Pseudomonas putida
  MIC: > 100 µg/mL

## CCCCCC#CC[n+]1ccn(CCCCC[Si](C)(C)C)c1.[I-]
Staphylococcus aureus
  MIC: 0.78 µg/mL
Bacillus subtilis
  MIC: 0.39 µg/mL
Escherichia coli
  MIC: 25 µg/mL
Pseudomonas putida
  MIC: 100 µg/mL

## CCCCCC#CC[n+]1ccn(CCCC[Si](C)(C)C)c1C.[I-]
Staphylococcus aureus
  MIC: 1.56 µg/mL
Bacillus subtilis
  MIC: 1.56 µg/mL
Escherichia coli
  MIC: 50 µg/mL
Pseudomonas putida
  MIC: 100 µg/mL

## CCCCCc1ccc(-[n+]2ccn(CCCC[Si](C)(C)C)c2)cc1.[I-]
Staphylococcus aureus
  MIC: 0.39 µg/mL
Bacillus subtilis
  MIC: 0.39 µg/mL
Escherichia coli
  MIC: 50 µg/mL
Pseudomonas putida
  MIC: 100 µg/mL

## CCCCCC#CC[N+]1(C)CCCCC1.[I-]
Staphylococcus aureus
  MIC: > 50 µg/mL
Bacillus subtilis
  MIC: > 50 µg/mL
Escherichia coli
  MIC: > 50 µg/mL
Pseudomonas putida
  MIC: > 50 µg/mL

## CCCCCC#CC[n+]1ccn(CCCCCCCCCCCC)c1.[I-]
Staphylococcus aureus
  MIC: 0.39 µg/mL
Bacillus subtilis
  MIC: 0.39 µg/mL
Escherichia coli
  MIC: 25 µg/mL
Pseudomonas putida
  MIC: 50 µg/mL

## CCCCCC#CC[n+]1ccn(CCCCCCCCCCC)c1C.[I-]
Staphylococcus aureus
  MIC: 0.39 µg/mL
Bacillus subtilis
  MIC: 0.39 µg/mL
Escherichia coli
  MIC: 3.13 µg/mL
Pseudomonas putida
  MIC: 50 µg/mL

## C#CC[n+]1ccn(CCCC[Si](C)(C)C)c1.[I-]
Staphylococcus aureus
  MIC: 100 µg/mL
Bacillus subtilis
  MIC: > 100 µg/mL
Escherichia coli
  MIC: > 100 µg/mL
Pseudomonas putida
  MIC: > 100 µg/mL

## CCCCCCCC[n+]1ccn(CCCC[Si](C)(C)C)c1.[I-]
Staphylococcus aureus
  MIC: 3.13 µg/mL
Bacillus subtilis
  MIC: 1.56 µg/mL
Escherichia coli
  MIC: 50 µg/mL
Pseudomonas putida
  MIC: > 100 µg/mL

## CCCCCC#CC[N+]1(CCCCC[Si](C)(C)C)CCCCC1.[I-]
Staphylococcus aureus
  MIC: 1.56 µg/mL
Bacillus subtilis
  MIC: 1.56 µg/mL
Escherichia coli
  MIC: 50 µg/mL
Pseudomonas putida
  MIC: 100 µg/mL

## CCCCCC#CC[n+]1ccn(CCCCCCCCCCCCCC)c1C.[I-]
Staphylococcus aureus
  MIC: 0.78 µg/mL
Bacillus subtilis
  MIC: 0.78 µg/mL
Escherichia coli
  MIC: 100 µg/mL
Pseudomonas putida
  MIC: > 100 µg/mL

## CCCCCC#CC[n+]1ccn(CCCCCCCCC[Si](C)(C)C)c1C.[I-]
Staphylococcus aureus
  MIC: 0.78 µg/mL
Bacillus subtilis
  MIC: 0.39 µg/mL
Escherichia coli
  MIC: 100 µg/mL
Pseudomonas putida
  MIC: 100 µg/mL

## CCCCCC#CC[n+]1ccn(CCCCCCCCCCCC)c1C.[I-]
Staphylococcus aureus
  MIC: 0.39 µg/mL
Bacillus subtilis
  MIC: 0.39 µg/mL
Escherichia coli
  MIC: 6.25 µg/mL
Pseudomonas putida
  MIC: 50 µg/mL

## CCCCCC#CC[n+]1ccn(CCCCCCC[Si](C)(C)C)c1.[I-]
Staphylococcus aureus
  MIC: 0.78 µg/mL
Bacillus subtilis
  MIC: 0.39 µg/mL
Escherichia coli
  MIC: 25 µg/mL
Pseudomonas putida
  MIC: 100 µg/mL

## CCCCCC#CC[n+]1ccn(CCCC[Si](C)(C)C)c1.[I-]
Staphylococcus aureus
  MIC: 3.13 µg/mL
Bacillus subtilis
  MIC: 1.56 µg/mL
Escherichia coli
  MIC: 50 µg/mL
Pseudomonas putida
  MIC: 100 µg/mL

## CCCCCC#CC[n+]1ccn(CCCCCCCCC)c1C.[I-]
Staphylococcus aureus
  MIC: 0.78 µg/mL
Bacillus subtilis
  MIC: 0.78 µg/mL
Escherichia coli
  MIC: 12.5 µg/mL
Pseudomonas putida
  MIC: 50 µg/mL

## C[Si](C)(C)CCCCCCCCCn1cc[n+](Cc2ccc(CC[Si](C)(C)C)cc2)c1.[I-]
Staphylococcus aureus
  MIC: > 6.25 µg/mL
Bacillus subtilis
  MIC: 6.25 µg/mL
Escherichia coli
  MIC: > 100 µg/mL
Pseudomonas putida
  MIC: > 100 µg/mL

## CCCCCC#CC[n+]1ccn(CCCCCCCCCCC[Si](C)(C)C)c1C.[I-]
Staphylococcus aureus
  MIC: 1.56 µg/mL
Bacillus subtilis
  MIC: 1.56 µg/mL
Escherichia coli
  MIC: > 100 µg/mL
Pseudomonas putida
  MIC: > 100 µg/mL
